Assay results from patent US20020114734A1, “Microplate thermal shift assay apparatus for ligand development and multi-variable protein chemistry optimization” (priority 1996, published 2002).
Like-named read-outs stand apart in the source and are kept apart here. Each block holds one molecule with its values, some of them ahead of it. Where a SMILES comes first, the peptide text is derived from it. The star is where a group is joined. CH2Cl = ClC*

What was measured:
human α-thrombin = target: T1, human α-thrombin (Homo sapiens, UniProt P00734); assay: Microplate thermal shift screen of biochemical conditions, thrombin stability; conditions: for effect on human α-thrombin stability: 10% glycerol, 10 mM dithiothreitol
T1 construct: A stock human α-thrombin solution; purchased Enzyme Research Labs
Description: The microplate thermal shift assay was used, with four different fluorophores, to simultaneously screen the effects of multiple pH values, sodium chloride concentrations, and reduction-oxidation compounds on human α-thrombin stability. […] Reaction volume was 100 μL.

D(II) FGF receptor 1 = assay: Microplate thermal shift screen of biochemical conditions, D(II) FGF receptor 1 stability; parameters: species or system human; conditions: for effect on D(II) FGF receptor 1 stability: additives in 50 mM MOPS pH 7, 0.1 M NaCl
Description: The microplate thermal shift assay was used to simultaneously screen the effects of multiple biochemical conditions on D(II) FGF receptor 1 stability. The assays were performed by mixing 1 μL of D(II) FGFR1 (from a 500 μM concentrated stock in 50 mM HEPES pH 7.5) with 4 μL of each biochemical condition in wells of a 96-well polycarbonate microtiter plate. Final protein concentration after mixing was 100 μM and final 1,8-ANS concentration was 200 μM. Biochemical conditions were tested as follows: The pH's tested were 5 (Na acetate), 6 (MES), 7 (MOPS), 8 (HEPES), and 9 (CHES), with final buffer concentrations of 50 mM.
The salt concentrations tested were 0.1 or 0.5 M NaCl. Additives were tested in 50 mM MOPS, pH 7, 0.1 M NaCl, at final concentrations of 1 mM (EDTA, dithiothreitol), 10 mM (CaCl2, MgCl2, MgSO4, NiSO4), 50 mM (arginine), 100 mM ((NH4)2SO4, LiSO4, Na2SO4, ZnSO4), 5% w/v (polyethylene glycol 6000), and 10% v/v glycerol.
(§1) Thermal denaturation profiles were generated as previously described for thrombin, aFGF, Factor D, and Factor Xa, by incremental heating of the microplate followed by a fluorescence reading after each temperature increase. Data were analyzed by non-linear least squares fitting as described previously.

[1] = system: human urokinase-type plasminogen activator (u-PA); assay: Miniaturized (5 μL) microplate thermal shift assay of urokinase; type: binding; conditions: CMK-u-PA complex, MOPS pH 7, NaCl, 1,8-ANS
Excerpt: Another target molecule analyzed was human urokinase-type plasminogen activator (u-PA). U-PA enzymatically converts plasminogen into the active protease plasmin. U-PA is involved in tissue remodeling, cellular migration and metastases. The gene for u-PA was obtained from ATCC (Rockville, Md.) and modified to appropriately express active enzyme in E. coli. u-PA was cloned, overexpressed in E. coli, and purified using procedures similar to those described by Winkler et al. (Biochemistry 25:4041-4045 (1986)). […] The experiment was performed in the miniaturized format in 5 μL well volume. One μL of concentrated CMK-u-PA (13 g/L, 371.4 μM) was added to 4 μL of 62.5 mM MOPS, pH 7, 125 mM NaCl, and 250 μM 1,8-ANS, in multiple wells of a 96-well polycarbonate V-bottom microtiter plate. A thermal denaturation curve was generated as previously described for thrombin, aFGF, D(II)FGFR1, Factor D, and Factor Xa, by incremental heating of the microplate followed by a fluorescence reading after each temperature increase.

human urokinase = assay: Microplate thermal shift screen of biochemical conditions, urokinase stability; conditions: 0.1 or 0.5 M NaCl; 10% glycerol
Description: The microplate thermal shift assay was used to simultaneously screen the effects of multiple biochemical conditions on human urokinase stability. This experiment was performed by mixing 1 μL of urokinase (from a […] concentrated stock in 20 mM Tris pH 8) with 4 μL of each biochemical condition in wells of a 96-well polycarbonate microtiter plate. Final protein concentration after mixing was 74 μM and final 1,8-ANS concentration was 200 μM. Biochemical conditions were tested as follows: The pH's tested were 5 (acetate), 6 (MES), 7 (MOPS), 8 (HEPES), and 9 (CHES) with final buffer concentrations of 50 mM. The salt concentrations tested were 0.1 or 0.5 M NaCl. Glycerol was tested at 10% v/v in 50 mM MOPS, pH 7, 0.1 M NaCl.
as §1, with “D, D(II) FGFR1,” for “D,”

thrombin = thrombin (Homo sapiens, UniProt P00734); conditions: 5 mM Tris buffer pH 8.0, 0.1% PEG, 25° C.; read-out: Kd of Na+ binding site; cited from earlier work
[2] = target: T2, heparin binding site of basic fibroblast growth factor (bFGF) (Homo sapiens, UniProt P09038); assay: Microplate thermal shift assay for ligands binding to bFGF; conditions: read-out: binding affinity
T2 construct: host or cells: E. coli
Excerpt: The microplate thermal shift assay was used to assess ligands for binding to the heparin binding site of basic fibroblast growth factor (bFGF). The gene for bFGF was purchased from R&D Systems and was cloned and expressed in E. coli as previously described (Thompson, L. D. et al., Biochemistry 33:3831-3840 (1994); Pantoliano, M. W. et al., Biochemistry 33:10229-10248 (1994); Springer, B. A. et al., J. Biol. Chem. 269:26879-26884 (1994)).

[3] = target: T3, acidic fibroblast growth factor (aFGF) (Homo sapiens, UniProt P05230); assay: Microplate thermal shift assay for ligands binding to aFGF, turbidity as signal
T3 construct: host or cells: E. coli
Excerpt: The second therapeutic receptor tested in the microplate thermal shift assay was acidic fibroblast growth factor (aFGF), a growth factor that plays a key role in angiogenesis (Folkman, J. et al., J. Biol. Chem. 267:10931-10934 (1992)). A synthetic gene for this protein was purchased from R&D Systems (Minneapolis, Minn.), and was cloned and expressed in E. coli using methods similar to those described for basic fibroblast growth factor (bFGF) (Thompson, L. D. et al., Biochemistry 33:3831-3840 (1994); Pantoliano, M. W. et al., Biochemistry 33:10229-10248 (1994); Springer, B. A. et al., J. Biol. Chem. 269:26879-26884 (1994)). Recombinant aFGF was then purified by heparin-sepharose affinity chromatography as described (Thompson, L. D. et al., Biochemistry 33:3831-3840 (1994)). aFGF is also known to bind heparin/heparan, which is a cofactor for mitogenic activity. […] A microplate thermal assay of these compounds was set up in a way similar to that described above for human α-thrombin. […] The affinity constants covered a fairly broad range of binding affinities, with pentosan PSO4 showing the highest affinity.

D(II) FGFR1 = target: T4, D(II) FGFR1 (Homo sapiens, UniProt P11362); assay: Miniaturized (10 μL) microplate thermal shift assay; type: binding
T4 construct: hexa-histidine (N); made in house
T4 sequence (P11362 158-246 limits assumed): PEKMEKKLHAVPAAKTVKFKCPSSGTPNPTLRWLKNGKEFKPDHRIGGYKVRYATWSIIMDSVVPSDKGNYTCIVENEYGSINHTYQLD
Description: Recombinant D(II) FGFR1 was purified from inclusion bodies and purified by affinity chromatography on heparin sepharose. A stock solution of D(II) FGFR1 (15 mg/mL; 1.1 mM) was diluted to 50 μM in assay buffer (50 mM Hepes, pH 7.5, 0.1 M NaCl). The assay volume was 10 μL and the concentration of 1,8-ANS was 250 μM.

T3 sequence (P05230 whole entry, species assumed): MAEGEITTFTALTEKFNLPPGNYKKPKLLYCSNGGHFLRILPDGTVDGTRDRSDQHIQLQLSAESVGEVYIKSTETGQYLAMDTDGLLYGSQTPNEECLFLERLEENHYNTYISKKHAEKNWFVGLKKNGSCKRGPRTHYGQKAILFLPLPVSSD
T2 sequence (P09038 134-288, species assumed): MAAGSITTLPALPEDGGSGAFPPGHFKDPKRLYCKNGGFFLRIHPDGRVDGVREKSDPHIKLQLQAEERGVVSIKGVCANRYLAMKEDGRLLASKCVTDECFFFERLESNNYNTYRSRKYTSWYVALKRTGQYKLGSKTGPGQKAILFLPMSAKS

Compound: N.N.O=S(=O)(O)O [(NH4)2SO4]
effect on D(II) FGF receptor 1 stability (D(II) FGF receptor 1): stabilizing effects

Compound: N=C(N)NCCC[C@H](NC(=O)CNC(=O)[C@@H](N)CCC(=O)O)C(=O)CCl [CMK, glu-gly-arg-chloromethylketone] (H-Glu-Gly-Arg-CH2Cl)
Tm [1]: 81 °C

Compound: O=S(=O)([O-])[O-].[Li+].[Li+] [Li2SO4]
effect on D(II) FGF receptor 1 stability (D(II) FGF receptor 1): stabilizing effects

Compound: O=S(=O)([O-])[O-].[Mg+2] [MgSO4]
effect on D(II) FGF receptor 1 stability (D(II) FGF receptor 1): stabilized the protein
effect on D(II) FGF receptor 1 stability (D(II) FGF receptor 1; listed as Mg2SO4): stabilizing effects

Compound: [Cl-].[Na+] [NaCl, sodium chloride]
ΔTm (human α-thrombin; NaCl concentration increased from 0 to 0.5 M): about 12 °C
Kd (human α-thrombin; near the Tm (53° C.), 50 mM Hepes pH 8.0, zero and 0.10 M NaCl, read-out: NaCl binding (estimated with equation (1))): ~6000 µM
effect on human urokinase stability (human urokinase): stabilized the protein
ΔTm (D(II) FGF receptor 1; NaCl concentration increased from 0.1 to 0.5 M): about 5 °C
Kd (thrombin): 30000 ± 3000 µM

Compound: Cc1ccc(C(=O)Nc2ccc(S(=O)(=O)O)c3cc(S(=O)(=O)O)cc(S(=O)(=O)O)c23)cc1NC(=O)c1cccc(NC(=O)Nc2cccc(C(=O)Nc3cc(C(=O)Nc4ccc(S(=O)(=O)O)c5cc(S(=O)(=O)O)cc(S(=O)(=O)O)c45)ccc3C)c2)c1 [Suramin, suramin]
Kd [2]: 3.5 µM
Tm ([3]; aFGF/ligand, aFGF 0.25 mg/mL, ligand 47-200 μM, turbidity): 330.15 ° K
Kd ([3]; equation (1), estimated ΔHu 60.0 kcal/mole, ΔCpu 0.95 kcal/mole-°K, read-out: Kd at Tm): 3.22 µM
Kd ([3]; equation (3), ΔHL estimated −10.0 kcal/mole, read-out: Kd at 298° K Observed): 0.622 µM
ΔTm ([3]; relative to aFGF alone (317.15 ° K)): 13.0 ° K

Compound: N=C(N)NCCC[C@H](N)C(=O)O [arginine]
effect on D(II) FGF receptor 1 stability (D(II) FGF receptor 1): stabilized the protein

Other lines, results leading:

effect on human α-thrombin stability (human α-thrombin): destabilizing effect
effect on D(II) FGF receptor 1 stability (D(II) FGF receptor 1): destabililzed the protein
Compound: O[C@H](CS)[C@H](O)CS (racemic) [dithiothreitol]

effect on D(II) FGF receptor 1 stability (D(II) FGF receptor 1): stabilizing effects
Compound: O=S(=O)([O-])[O-].[Na+].[Na+] [Na2SO4]

unfolding transition (Tm) (D(II) FGFR1; aprosulate 300 uM): about 320 K
increase of unfolding transition (D(II) FGFR1; aprosulate 300 uM, 50 μM D(II) FGFR1, 10 μL): about 8 K
Kd (D(II) FGFR1; estimate, read-out: binding affinity at the Tm): ~18 µM
Compound: O=C(NCCCNC(=O)[C@H](OS(=O)(=O)O)[C@@H](OS(=O)(=O)O)[C@H](O[C@@H]1O[C@H](COS(=O)(=O)O)[C@H](OS(=O)(=O)O)[C@H](OS(=O)(=O)O)[C@H]1OS(=O)(=O)O)[C@@H](COS(=O)(=O)O)OS(=O)(=O)O)[C@H](OS(=O)(=O)O)[C@@H](OS(=O)(=O)O)[C@H](O[C@@H]1O[C@H](COS(=O)(=O)O)[C@H](OS(=O)(=O)O)[C@H](OS(=O)(=O)O)[C@H]1OS(=O)(=O)O)[C@@H](COS(=O)(=O)O)OS(=O)(=O)O [aprosulate]

effect on human α-thrombin stability (human α-thrombin): stabilizing effect
effect on human urokinase stability (human urokinase): stabilized the protein
effect on D(II) FGF receptor 1 stability (D(II) FGF receptor 1): stabilized the protein
Compound: OCC(O)CO [glycerol]
